Assay results taken from patent publication US20230016424A1, “HYBRID AMIDE DERIVATIVES OF AMPHOTERICIN B” (The Board of Trustees of the University of Illinois, priority 2019, published 2023).
In brackets after ≈: the same amount, converted by molar mass.

Experiments:
[1] = system: C. albicans SN250, C. albicans, C. krusei, C. glabrata, C. tropicalis, A. fumigatus 91, 1163, 1100; assay: Average MIC over the tested strains; assay type: cell-based; conditions: for MIC (Average Minimum Inhibition Concentration): Table 7, C16 amide AmB variants
[2] = system: C. albicans SN250; assay: MIC; assay type: cell-based, Candida albicans
[3] = system: C. krusei; assay: MIC; assay type: cell-based
[4] = system: C. glabrata; assay: MIC; assay type: cell-based

Row | SMILES | MIC (Average Minimum Inhibition Concentration) [1] | further results
1 | CC1C=CC=CC=CC=CC=CC=CC=CC(OC2OC(C)C(O)C(N)C2O)CC2OC(O)(CC(O)CC(O)C(O)CCC(O)CC(O)CC(=O)OC(C)C(C)C1O)CC(O)C2C(=O)NCC1CCCO1 (stereo not drawn) [EZ] | 0.516 µM | 
2 | CC1C=CC=CC=CC=CC=CC=CC=CC(OC2OC(C)C(O)C(N)C2O)CC2OC(O)(CC(O)CC(O)C(O)CCC(O)CC(O)CC(=O)OC(C)C(C)C1O)CC(O)C2C(=O)NCC(O)CO (stereo not drawn) [GH] | 0.329 µM | 
3 | CC1C=CC=CC=CC=CC=CC=CC=CC(OC2OC(C)C(O)C(N)C2O)CC2OC(O)(CC(O)CC(O)C(O)CCC(O)CC(O)CC(=O)OC(C)C(C)C1O)CC(O)C2C(=O)NCCN(C)C (stereo not drawn) [DA] | 0.352 µM | 
4 | CC1C=CC=CC=CC=CC=CC=CC=CC(OC2OC(C)C(O)C(N)C2O)CC2OC(O)(CC(O)CC(O)C(O)CCC(O)CC(O)CC(=O)OC(C)C(C)C1O)CC(O)C2C(=O)NC1(C(N)=O)CC1 (stereo not drawn) [FG] | 0.531 µM | 
5 | CC1C=CC=CC=CC=CC=CC=CC=CC(OC2OC(C)C(O)C(N)C2O)CC2OC(O)(CC(O)CC(O)C(O)CCC(O)CC(O)CC(=O)OC(C)C(C)C1O)CC(O)C2C(=O)NC1C(O)C(O)OC(CO)C1O (stereo not drawn) [FT] | 0.289 µM | 
6 | C=CCNC(=O)C1C(O)CC2(O)CC(O)CC(O)C(O)CCC(O)CC(O)CC(=O)OC(C)C(C)C(O)C(C)C=CC=CC=CC=CC=CC=CC=CC(OC3OC(C)C(O)C(N)C3O)CC1O2 (stereo not drawn) [EL] | 0.453 µM | 
7 | CC1C=CC=CC=CC=CC=CC=CC=CC(OC2OC(C)C(O)C(N)C2O)CC2OC(O)(CC(O)CC(O)C(O)CCC(O)CC(O)CC(=O)OC(C)C(C)C1O)CC(O)C2C(=O)NC1COCC1O (stereo not drawn) [BP] |  | Average MIC ([1]; Table 12, C16 amides of C2'epiAmB): 1.250 µM
8 | CC1C=CC=CC=CC=CC=CC=CC=CC(OC2OC(C)C(O)C(N)C2O)CC2OC(O)(CC(O)CC(O)C(O)CCC(O)CC(O)CC(=O)OC(C)C(C)C1O)CC(O)C2C(=O)NC1CC(CO)C(O)C1O (stereo not drawn) [FS] | 2.81 µM | 
9 | CC1C=CC=CC=CC=CC=CC=CC=CC(OC2OC(C)C(O)C(N)C2O)CC2OC(O)(CC(O)CC(O)C(O)CCC(O)CC(O)CC(=O)OC(C)C(C)C1O)CC(O)C2C(=O)NC1CCCCCCCCC1 (stereo not drawn) [AR-10] |  | MIC C. albicans SN250 [2]: 1000 µM (≈ 1060 µg/mL); Average MIC ([1]; Tables 8 and 9, average over the 8 listed strains): 2250 µM; MIC C. krusei [3]: 1000 µM (≈ 1060 µg/mL); MIC C. glabrata [4]: 2000 µM (≈ 2120 µg/mL)
